Measurements reported in the NIST ThermoML archive (doi:10.1016/j.jct.2004.12.008).
± gives the expanded uncertainty stated by the source.

Assay: xn = mol fraction of the nth substance listed
Settings: 101 kPa, Liquid

`O=[N+]([O-])c1ccccc1` [nitrobenzene] + Cc1cccc(C)c1 gave a mass density (293.15 K, x2 = 0) of 1202.95 ± 2.3 kg/m3, a mass density (293.15 K, x2 = 0.0549) of 1181.56 ± 2.1 kg/m3 and a mass density (293.15 K, x2 = 0.1248) of 1154.92 ± 1.9 kg/m3. The mass density (293.15 K, x2 = 0.1832) was 1133.14 ± 1.8 kg/m3, the mass density (293.15 K, x2 = 0.2489) was 1109.13 ± 1.7 kg/m3 and the mass density (293.15 K, x2 = 0.3134) was 1086.03 ± 1.5 kg/m3. The mass density (293.15 K, x2 = 0.3681) was 1066.8 ± 1.4 kg/m3, the mass density (293.15 K, x2 = 0.4234) was 1047.66 ± 1.3 kg/m3 and the mass density (293.15 K, x2 = 0.4892) was 1025.28 ± 1.2 kg/m3. The mass density (293.15 K, x2 = 0.5321) was 1010.91 ± 1.1 kg/m3, the mass density (293.15 K, x2 = 0.6013) was 988.09 ± 1.2 kg/m3 and the mass density (293.15 K, x2 = 0.6539) was 971.01 ± 1.3 kg/m3. For the same compound, the mass density (293.15 K, x2 = 0.7242) was 948.56 ± 1.6 kg/m3, the mass density (293.15 K, x2 = 0.7811) was 930.68 ± 1.8 kg/m3 and the mass density (293.15 K, x2 = 0.8631) was 905.36 ± 2.1 kg/m3. For the same compound, the mass density (293.15 K, x2 = 0.9321) was 884.44 ± 2.3 kg/m3, the mass density (303.15 K, x2 = 0) was 1193.56 ± 2.2 kg/m3 and the mass density (303.15 K, x2 = 0.0478) was 1174.85 ± 2.1 kg/m3. For the same compound, the mass density (303.15 K, x2 = 0.1132) was 1149.78 ± 1.9 kg/m3, the mass density (303.15 K, x2 = 0.1812) was 1124.32 ± 1.7 kg/m3 and the mass density (303.15 K, x2 = 0.2343) was 1104.85 ± 1.6 kg/m3. The mass density (303.15 K, x2 = 0.2943) was 1083.27 ± 1.5 kg/m3, the mass density (303.15 K, x2 = 0.3535) was 1062.36 ± 1.4 kg/m3 and the mass density (303.15 K, x2 = 0.4143) was 1041.29 ± 1.2 kg/m3. The mass density (303.15 K, x2 = 0.4711) was 1021.95 ± 1.1 kg/m3, the mass density (303.15 K, x2 = 0.5243) was 1004.13 ± 1 kg/m3 and the mass density (303.15 K, x2 = 0.6123) was 975.24 ± 1.3 kg/m3. The mass density (303.15 K, x2 = 0.6811) was 953.14 ± 1.5 kg/m3, the mass density (303.15 K, x2 = 0.7423) was 933.82 ± 1.7 kg/m3 and the mass density (303.15 K, x2 = 0.8132) was 911.82 ± 1.9 kg/m3. It also gave a mass density (303.15 K, x2 = 0.8834) of 890.44 ± 2.2 kg/m3, a mass density (303.15 K, x2 = 0.9432) of 872.53 ± 2.4 kg/m3 and a mass density (313.15 K, x2 = 0) of 1183.37 ± 2.1 kg/m3. For the same compound, the mass density (313.15 K, x2 = 0.0723) was 1155.17 ± 1.9 kg/m3, the mass density (313.15 K, x2 = 0.1289) was 1133.64 ± 1.8 kg/m3 and the mass density (313.15 K, x2 = 0.1732) was 1117.09 ± 1.7 kg/m3. For the same compound, the mass density (313.15 K, x2 = 0.2212) was 1099.45 ± 1.6 kg/m3, the mass density (313.15 K, x2 = 0.2811) was 1077.85 ± 1.4 kg/m3 and the mass density (313.15 K, x2 = 0.3635) was 1048.82 ± 1.2 kg/m3. The mass density (313.15 K, x2 = 0.4244) was 1027.87 ± 1.1 kg/m3, the mass density (313.15 K, x2 = 0.4823) was 1008.31 ± 1 kg/m3 and the mass density (313.15 K, x2 = 0.5423) was 988.4 ± 1.1 kg/m3. The mass density (313.15 K, x2 = 0.6131) was 965.35 ± 1.3 kg/m3, the mass density (313.15 K, x2 = 0.6732) was 946.15 ± 1.5 kg/m3 and the mass density (313.15 K, x2 = 0.749) was 922.4 ± 1.8 kg/m3. It also gave a mass density (313.15 K, x2 = 0.8313) of 897.16 ± 2.1 kg/m3, a mass density (313.15 K, x2 = 0.8724) of 884.76 ± 2.2 kg/m3 and a mass density (313.15 K, x2 = 0.9331) of 866.7 ± 2.4 kg/m3. The mass density (323.15 K, x2 = 0) was 1172.38 ± 2 kg/m3, the mass density (323.15 K, x2 = 0.0698) was 1145.18 ± 1.9 kg/m3 and the mass density (323.15 K, x2 = 0.1321) was 1121.54 ± 1.7 kg/m3. For the same compound, the mass density (323.15 K, x2 = 0.1832) was 1102.55 ± 1.6 kg/m3, the mass density (323.15 K, x2 = 0.2576) was 1075.53 ± 1.4 kg/m3 and the mass density (323.15 K, x2 = 0.3139) was 1055.55 ± 1.3 kg/m3. The mass density (323.15 K, x2 = 0.3781) was 1033.23 ± 1.1 kg/m3, the mass density (323.15 K, x2 = 0.4527) was 1007.89 ± 0.98 kg/m3 and the mass density (323.15 K, x2 = 0.5198) was 985.6 ± 1.1 kg/m3. It also gave a mass density (323.15 K, x2 = 0.5631) of 971.45 ± 1.2 kg/m3, a mass density (323.15 K, x2 = 0.6398) of 946.86 ± 1.5 kg/m3 and a mass density (323.15 K, x2 = 0.7043) of 926.6 ± 1.7 kg/m3. It also gave a mass density (323.15 K, x2 = 0.7731) of 905.4 ± 1.9 kg/m3, a mass density (323.15 K, x2 = 0.8343) of 886.88 ± 2.1 kg/m3 and a mass density (323.15 K, x2 = 0.8623) of 878.51 ± 2.2 kg/m3. The mass density (323.15 K, x2 = 0.9423) was 854.95 ± 2.5 kg/m3, the mass density (333.15 K, x2 = 0) was 1160.59 ± 1.9 kg/m3 and the mass density (333.15 K, x2 = 0.0499) was 1141.14 ± 1.8 kg/m3. For the same compound, the mass density (333.15 K, x2 = 0.1244) was 1112.83 ± 1.6 kg/m3, the mass density (333.15 K, x2 = 0.1674) was 1096.86 ± 1.5 kg/m3 and the mass density (333.15 K, x2 = 0.234) was 1072.65 ± 1.3 kg/m3. For the same compound, the mass density (333.15 K, x2 = 0.3089) was 1046.1 ± 1.2 kg/m3, the mass density (333.15 K, x2 = 0.3598) was 1028.47 ± 1.1 kg/m3 and the mass density (333.15 K, x2 = 0.4242) was 1006.59 ± 0.95 kg/m3. For the same compound, the mass density (333.15 K, x2 = 0.4972) was 982.35 ± 1.1 kg/m3, the mass density (333.15 K, x2 = 0.5672) was 959.63 ± 1.3 kg/m3 and the mass density (333.15 K, x2 = 0.6319) was 939.07 ± 1.5 kg/m3. The mass density (333.15 K, x2 = 0.7133) was 913.77 ± 1.8 kg/m3, the mass density (333.15 K, x2 = 0.7632) was 898.55 ± 2 kg/m3 and the mass density (333.15 K, x2 = 0.8347) was 877.13 ± 2.2 kg/m3. It also gave a mass density (333.15 K, x2 = 0.8824) of 863.08 ± 2.4 kg/m3, a mass density (333.15 K, x2 = 0.9323) of 848.58 ± 2.5 kg/m3 and a mass density (343.15 K, x2 = 0) of 1148 ± 1.9 kg/m3. The mass density (343.15 K, x2 = 0.0598) was 1124.88 ± 1.7 kg/m3, the mass density (343.15 K, x2 = 0.1123) was 1105.06 ± 1.5 kg/m3 and the mass density (343.15 K, x2 = 0.1842) was 1078.58 ± 1.4 kg/m3. The mass density (343.15 K, x2 = 0.2542) was 1053.5 ± 1.2 kg/m3, the mass density (343.15 K, x2 = 0.3243) was 1029.04 ± 1.1 kg/m3 and the mass density (343.15 K, x2 = 0.3831) was 1008.98 ± 0.93 kg/m3. It also gave a mass density (343.15 K, x2 = 0.4425) of 989.14 ± 0.99 kg/m3, a mass density (343.15 K, x2 = 0.5131) of 966.07 ± 1.2 kg/m3 and a mass density (343.15 K, x2 = 0.5728) of 946.96 ± 1.4 kg/m3. For the same compound, the mass density (343.15 K, x2 = 0.6392) was 926.14 ± 1.6 kg/m3, the mass density (343.15 K, x2 = 0.6901) was 910.47 ± 1.8 kg/m3 and the mass density (343.15 K, x2 = 0.7532) was 891.38 ± 2 kg/m3. It also gave a mass density (343.15 K, x2 = 0.8242) of 870.31 ± 2.2 kg/m3, a mass density (343.15 K, x2 = 0.8731) of 856.05 ± 2.4 kg/m3 and a mass density (343.15 K, x2 = 0.9238) of 841.48 ± 2.6 kg/m3. For the same compound, the mass density (353.15 K, x2 = 0) was 1134.61 ± 1.8 kg/m3, the mass density (353.15 K, x2 = 0.0532) was 1114.19 ± 1.6 kg/m3 and the mass density (353.15 K, x2 = 0.1289) was 1085.92 ± 1.4 kg/m3. It also gave a mass density (353.15 K, x2 = 0.1984) of 1060.73 ± 1.2 kg/m3, a mass density (353.15 K, x2 = 0.2429) of 1044.96 ± 1.1 kg/m3 and a mass density (353.15 K, x2 = 0.3092) of 1021.96 ± 0.98 kg/m3. It also gave a mass density (353.15 K, x2 = 0.3711) of 1000.98 ± 0.85 kg/m3, a mass density (353.15 K, x2 = 0.4248) of 983.16 ± 1 kg/m3 and a mass density (353.15 K, x2 = 0.4891) of 962.26 ± 1.2 kg/m3. It also gave a mass density (353.15 K, x2 = 0.5518) of 942.3 ± 1.4 kg/m3, a mass density (353.15 K, x2 = 0.6138) of 922.97 ± 1.6 kg/m3 and a mass density (353.15 K, x2 = 0.6731) of 904.84 ± 1.8 kg/m3. For the same compound, the mass density (353.15 K, x2 = 0.7294) was 887.93 ± 2 kg/m3, the mass density (353.15 K, x2 = 0.8013) was 866.76 ± 2.2 kg/m3 and the mass density (353.15 K, x2 = 0.8673) was 847.71 ± 2.5 kg/m3. For the same compound, the mass density (353.15 K, x2 = 0.9451) was 825.73 ± 2.7 kg/m3.
